# Results: ChEMBL document CHEMBL1122891, “Substituted 5H-dibenz[b,g]-1,4-oxazocines and related amino acids with antiinflammatory activity” (1985)
# Tests used:
# Assay type in all cases: functional
# [1] = system: Rattus norvegicus; test: Percent reduction in swelling of the left hind paw in rat when 100 mg/kg of dose was injected perorally which was determined in adjuvant arthritis test; conditions: route oral
# [2] = system: Rattus norvegicus; test: Percent reduction in swelling of the left hind paw in rat when 10 mg/kg of dose was injected perorally which was determined in adjuvant arthritis test; conditions: route oral
# [3] = species on record: Rattus norvegicus; test: Activity relative to fenclofenac determined in adjuvant arthritis test
# [4] = system: Rattus norvegicus; test: Percent reduction in swelling of the left hind paw in rat determined in adjuvant arthritis test, 50 mg/kg dose perorally; conditions: route oral
# [5] = system: Rattus norvegicus; test: Percent reduction in swelling of the left hind paw in rat determined in adjuvant arthritis test, 25 mg/kg dose was perorally; conditions: route oral
# [6] = system: Rattus norvegicus; test: Minimum ulcerogenic dose was evaluated 24 hours after peroral administration; value may range from 100-200
# [7] = system: Rattus norvegicus; test: Percent reduction in swelling of the left hind paw in rat when 75 mg/kg of dose was injected perorally which was determined in adjuvant arthritis test; conditions: route oral
# [8] = system: Rattus norvegicus; test: Minimum ulcerogenic dose was evaluated 24 hours after peroral administration
# [9] = system: Rattus norvegicus; test: Minimum ulcerogenic dose was evaluated 24 hours after peroral administration; value may range from 25-50
# [10] = system: Rattus norvegicus; test: Minimum ulcerogenic dose was evaluated 24 hours after peroral administration; value may range from 50-100
# [11] = system: Rattus norvegicus; test: Percent reduction in swelling of the left hind paw in rat when 25 mg/kg of dose was injected perorally which was determined in adjuvant arthritis test; conditions: route oral
Compound,Relative potency [3],Reduction [4] [%],further results
Nc1cc(Cl)ccc1Oc1ccccc1CC(=O)O,–,–,Reduction [1]: 4%
Cc1cccc([N+](=O)[O-])c1Oc1ccccc1CC(=O)O,–,–,Reduction [2]: 26%
CN1CCc2ccccc2Oc2c(Cl)cccc21,1.4,31,–
O=CN1CCc2ccccc2Oc2c(Cl)cccc21,–,–,Reduction [1]: 33%
CCCN1CCc2ccccc2Oc2c(Cl)cc(Cl)cc21,0.6,39,–
C[N+]1([O-])CCc2ccccc2Oc2c(Cl)cc(Cl)cc21 (stereo not drawn),2.2,42,–
c1ccc2c(c1)CCNc1ccccc1O2,–,6,–
Cc1ccc2c(c1)CCNc1cccc(Cl)c1O2,–,22,–
COc1cc(N)c(Oc2ccccc2CC(=O)O)c(Cl)c1,–,–,Reduction [5]: 24%
CCC[N+]1([O-])CCc2ccccc2Oc2c(Cl)cc(Cl)cc21 (stereo not drawn),–,36,–
Nc1c(Cl)cc(Cl)cc1Oc1ccccc1CC(=O)O,6.6,–,Reduction [2]: 37%
O=C(O)Cc1ccccc1Oc1c(Cl)cccc1[N+](=O)[O-],2,–,MUD [6]: 100 mg/kg; Reduction [7]: 45%
O=C(O)Cc1cccc(Cl)c1Oc1c(Cl)cccc1[N+](=O)[O-],–,–,Reduction [5]: 1%
CCCC(=O)N1CCc2ccccc2Oc2c(Cl)cc(Cl)cc21,–,–,Reduction [1]: 8%
NNC(=O)N1CCc2ccccc2Oc2c(Cl)cc(Cl)cc21,0.6,–,Reduction [5]: 32%
Cc1cc(N)c(Oc2ccccc2CC(=O)O)c(Cl)c1,–,–,Reduction [5]: 20%
Nc1ccc(Cl)cc1Oc1ccccc1CC(=O)O,–,–,Reduction [5]: 12%
O=C(Cc1ccccc1Oc1c(Cl)cccc1[N+](=O)[O-])OC1OC(=O)c2ccccc21 (stereo not drawn),0.7,30,MUD [8]: >800 mg/kg
Cc1ccc2c(c1)CCNc1cc(Cl)c(Cl)cc1O2,–,8,–
Nc1cc(Br)cc(Br)c1Oc1ccccc1CC(=O)O,8.6,–,MUD [9]: 25 mg/kg; Reduction [5]: 50%
Clc1ccc(CN2CCc3ccccc3Oc3c(Cl)cc(Cl)cc32)cc1,–,10,–
Cc1cccc(CC(=O)O)c1Oc1c(Cl)cccc1[N+](=O)[O-],–,–,Reduction [5]: 0%
CCc1cc(Cl)c2c(c1)NCCc1cc(C)ccc1O2,–,–,Reduction [1]: 13%
COc1cc(Cl)cc2c1Oc1ccc(C)cc1CCN2,–,–,Reduction [7]: 1%

Compound,Relative potency [3],Reduction [4] [%],further results
O=C(Cc1ccccc1Oc1c(Cl)cccc1[N+](=O)[O-])NO,–,36,–
COC(=O)Cc1ccccc1Oc1c(Cl)cc(Cl)cc1NC(C)=O,–,–,Reduction [5]: 18%
Clc1ccc2c(c1)CCNc1cc(Cl)cc(Cl)c1O2,0.8,25,–
Nc1cccc(Cl)c1Oc1cc(Cl)ccc1CC(=O)O,–,–,Reduction [5]: 1%
CCc1cc(N)c(Oc2ccc(C)cc2CC(=O)O)c(F)c1,–,–,MUD [6]: 100 mg/kg; Reduction [5]: 1%
O=C(O)Cc1ccccc1Oc1c([N+](=O)[O-])cc(Cl)c(Cl)c1Cl,0.6,–,Reduction [2]: 17%
O=C(Cl)N1CCc2ccccc2Oc2c(Cl)cc(Cl)cc21,–,7,–
CCc1cc(N)c(Oc2ccc(C)cc2CC(=O)O)c(Cl)c1,1,–,Reduction [5]: 34%
Cc1ccc2c(c1)NCCc1ccccc1O2,–,0,–
CNc1cc(Cl)cc(Cl)c1Oc1ccccc1CC(=O)OC,2.5,36,MUD [10]: 50 mg/kg
NC(=O)Cc1ccccc1Oc1c(Cl)cccc1[N+](=O)[O-],1.1,36,MUD [8]: >800 mg/kg
Clc1cc(Cl)c2c(c1)NCCc1ccccc1O2,2.1,–,Reduction [11]: 41%
COc1cc(Cl)c2c(c1)NCCc1ccccc1O2,–,18,–
Fc1cccc2c1Oc1ccccc1CCN2,–,0,–
CN1CCc2cc(Cl)ccc2Oc2c(Cl)cccc21,–,13,–
Cc1cc(Cl)c2c(c1)NCCc1ccccc1O2,–,–,Reduction [11]: 23%
Clc1ccc2c(c1)NCCc1ccccc1O2,–,0,–
Cc1ccc2c(c1)CCN(C)c1cccc(Cl)c1O2,–,15,–
CC(=O)N1CCc2ccccc2Oc2c(Cl)cc(Cl)cc21,–,–,Reduction [7]: 10%
CN1CCc2ccccc2Oc2c(Cl)cc(Cl)cc21,2.4,35,–
Clc1cccc2c1Oc1ccccc1CCN2,0.2,–,Reduction [1]: 33%
Clc1ccc2c(c1)Oc1ccccc1CCN2,–,0,–
CCc1cc(Cl)cc(N)c1Oc1ccccc1CC(=O)O,2.8,–,Reduction [2]: 25%
CNc1cccc(Cl)c1Oc1ccccc1CCO,5,–,MUD [6]: 100 mg/kg; Reduction [2]: 36%
